Source: PMC7156412, “Inhibition of the deubiquitinase USP10 induces degradation of SYK” (British Journal of Cancer, 2020)

Legend:
[1] = system: SYK; assay: Immunoblot of SYK protein levels in Ba/F3-FLT3-ITD cells; format: cell-based, murine; settings: 24 h of treatment
Method: (§1) Protein lysate preparation, immunoblotting and immunoprecipitation were carried out as previously described.[21]

[2] = system: FLT3; assay: Immunoblot of FLT3 protein levels in Ba/F3-FLT3-ITD cells; format: cell-based, murine; settings: for Induction of FLT3 degradation: Ba/F3-FLT3-ITD cells, 24 hr, 10-20 µM; for FLT3 protein levels: all treated oncogenic FLT3-expressing cells, 24 h
Method: as §1

[3] = system: USP10; settings: cited from earlier work
[4] = system: FLT3; assay: Immunoblot of FLT3 in Ba/F3-FLT3-ITD+TKD point mutant cells; format: cell-based, murine; settings: Ba/F3-FLT3-ITD+TKD point mutant cells (A627T, F691L, G697R, F691I), 24 hr, 5-10 µM
Method: as §1

[5] = system: SYK; assay: Immunoblot of SYK in Ba/F3-FLT3-ITD+TKD point mutant cells; format: cell-based, murine; settings: Ba/F3-FLT3-ITD+TKD point mutant cells (A627T, F691L, G697R, F691I), 24 hr, 5-10 µM
Method: as §1

[6] = system: USP7; settings: cited from earlier work
[7] = system: SYK; assay: Immunoblot of SYK protein levels in PBMCs from normal donors; format: cell-based; settings: 24 h of treatment
Method: as §1

[8] = system: SYK; assay: Immunoblot of SYK protein levels in MV4-11 cells; format: cell-based; settings: 24 h of treatment
Method: as §1

[9] = system: Ba/F3-FLT3-ITD cells; set-up: method as in PMID 28967922; settings: cited from earlier work
[10] = system: FLT3-ITD-positive MOLM14 cells; set-up: method as in PMID 28967922; settings: cited from earlier work

Chain of SYK (P48025 whole entry): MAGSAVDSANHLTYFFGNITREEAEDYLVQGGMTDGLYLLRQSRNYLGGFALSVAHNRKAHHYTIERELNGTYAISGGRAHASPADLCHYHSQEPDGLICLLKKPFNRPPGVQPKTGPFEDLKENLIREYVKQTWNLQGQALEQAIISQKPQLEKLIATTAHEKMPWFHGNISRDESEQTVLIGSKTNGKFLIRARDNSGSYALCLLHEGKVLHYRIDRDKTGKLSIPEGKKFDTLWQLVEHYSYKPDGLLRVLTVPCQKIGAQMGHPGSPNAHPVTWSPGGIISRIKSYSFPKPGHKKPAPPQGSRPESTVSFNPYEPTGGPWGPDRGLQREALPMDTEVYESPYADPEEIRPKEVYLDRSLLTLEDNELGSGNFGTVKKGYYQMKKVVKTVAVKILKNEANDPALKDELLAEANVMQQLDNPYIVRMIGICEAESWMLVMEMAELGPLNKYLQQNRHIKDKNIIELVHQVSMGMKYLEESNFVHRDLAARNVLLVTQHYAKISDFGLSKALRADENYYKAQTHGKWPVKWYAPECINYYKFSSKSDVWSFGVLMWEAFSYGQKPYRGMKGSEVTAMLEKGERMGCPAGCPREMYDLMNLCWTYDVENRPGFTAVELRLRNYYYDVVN

| Compound | Effect on SYK protein levels [1] | Induction of FLT3 degradation [2] | USP10 inhibitory activity in biochemical assay ([3]; Ub-AMC as substrate, as previously determined) | Effect on FLT3 protein levels [4] | Effect on SYK protein levels [5] | Inhibition of USP7 activity [6] | FLT3 protein levels [2] | Effect on SYK protein levels [7] | Effect on SYK protein levels [8] | Inhibition of USP10 activity [3] | Combination effect with crenolanib or midostaurin [9] | Combination effect with crenolanib or midostaurin [10] |
| --- | --- | --- | --- | --- | --- | --- | --- | --- | --- | --- | --- | --- |
| CCCN(CCC)CCCNC(=O)c1ccc2c(Cl)c3c(nc2c1)CCCC3 [C598-0466] | strongly inducing degradation of SYK protein | Induction of FLT3 degradation | showing activity against USP10 |  |  |  |  |  |  |  |  |  |
| CC(=O)c1cc([N+](=O)[O-])c(Sc2ccc(F)cc2F)s1 [P22077] | downregulated | Induction of FLT3 degradation |  | induces degradation of SYK and FLT3 | induces degradation of SYK and FLT3 | inhibit the activity | lower | loss of SYK protein | downregulated | inhibit the activity |  |  |
| HBX19818 | downregulated | Induction of FLT3 degradation |  |  |  | inhibit the activity | lower | loss of SYK protein | downregulated | inhibit the activity | synergistic effects | synergistic effects |
